The text below walks through data of patent publication US9957428B2 (priority 2013, dated 2018).

The format of series [1] is physicochemical.
Series [2] is classed as physicochemical. The source holds these as a separate data set.

Read-outs that look alike come from different tables or passages of the source.

In the case of `CCOC(F)(C(F)(F)C(F)(F)C(F)(F)F)C(F)(C(F)(F)F)C(F)(F)F` (stereo not shown) [Novec 7500], the Cp in series [1] (Temperature 15 ° C.) is given as 1.08 J/(g · ° C.); in series [1] (Temperature 20 ° C.) it was 1.09 J/(g · ° C.); in series [1] (Temperature 25 ° C.), 1.10 J/(g · ° C.); in series [1] (Temperature 30 ° C.) it was 1.11 J/(g · ° C.); in series [1] (Temperature 35 ° C.), 1.12 J/(g · ° C.); in series [1] (Temperature 40 ° C.), 1.13 J/(g · ° C.).

Take `FC(=C(F)C(F)(F)F)N(C(F)(F)F)C(F)(F)F` [Preparatory Example 1, 1,2,3,3,3-pentafluoro-N,N-bis(trifluoromethyl)prop-1-en-1-amine]: the “Vapor Pressure at 68° F.(20° C.)” value is 50.9 mm Hg. In addition, in series [1] (Temperature 15 ° C.), the Cp is 1.25 J/(g · ° C.). In series [1] (Temperature 20 ° C.), the Cp is listed as 1.27 J/(g · ° C.). In addition, the Cp in series [1] (Temperature 25 ° C.) is 1.28 J/(g · ° C.). Also, the Cp in series [1] (Temperature 30 ° C.) is 1.30 J/(g · ° C.). In addition, the Cp in series [1] (Temperature 35 ° C.) is 1.32 J/(g · ° C.). Also, the Cp in series [1] (Temperature 40 ° C.) is 1.34 J/(g · ° C.). The “Kinematic Viscosity” value in series [2] (Temp 0.0 °C) came to 0.91 cS. Besides, the “Kinematic Viscosity” value in series [2] (Temp 25.0 °C) amounted to 0.58 cS. In addition, the “Kinematic Viscosity” value in series [2] (Temp 30.0 °C) came to 0.54 cS. Further, in series [2] (Temp 40.0 °C), the “Kinematic Viscosity” value is given as 0.48 cS. For the same compound, in series [2] (Temp 50.0 °C), the “Kinematic Viscosity” value was 0.42 cS. Besides, the “Kinematic Viscosity” value in series [2] (Temp 60.0 °C) stood at 0.38 cS.

For `F/C(=C(/F)C(F)(F)F)N1C(F)(F)C(F)(F)OC(F)(F)C1(F)F` [Preparatory Example 2, 2,2,3,3,5,5,6,6-octafluoro-4-(1,2,3,3,3-pentafluoroprop-1-enyl)morpholine], the Cp is on record as 1.09 J/(g · ° C.) in series [1] (Temperature 15 ° C.); 1.10 J/(g · ° C.) in series [1] (Temperature 20 ° C.); 1.11 J/(g · ° C.) in series [1] (Temperature 25 ° C.); 1.12 J/(g · ° C.) in series [1] (Temperature 30 ° C.); 1.13 J/(g · ° C.) in series [1] (Temperature 35 ° C.); 1.14 J/(g · ° C.) in series [1] (Temperature 40 ° C.).

Take `FC(=C(F)C(F)(F)F)N(C(F)(F)F)C(F)(F)C(F)(F)F` [Preparatory Example 5, 1,2,3,3,3-pentafluoro-N-(1,1,2,2,2-pentafluoroethyl)-N-(trifluoromethyl)prop-1-en-1-amine]: the Cp is 1.18 J/(g · ° C.) in series [1] (Temperature 15 ° C.); 1.20 J/(g · ° C.) in series [1] (Temperature 20 ° C.); 1.21 J/(g · ° C.) in series [1] (Temperature 25 ° C.); 1.22 J/(g · ° C.) in series [1] (Temperature 30 ° C.); 1.23 J/(g · ° C.) in series [1] (Temperature 35 ° C.); 1.24 J/(g · ° C.) in series [1] (Temperature 40 ° C.).
